*1 amine or outer side, *2 acyl side, *3 side chain or, on linkers, in order; H or OH if unused. Where a SMILES comes first, the peptide text is derived from it. The star is where a group is joined. ξ: configuration not given here. X6 = Nc1ccn(C2OC(COC(=O)CCCCCN3C(=O)CC(*)C3=O)C(O)C2(F)F)c(=O)n1; C18 diacid = O=C(O)CCCCCCCCCCCCCCCCC(=O)*; ξγGlu = O=C(O)C(CCC(=O)[*:2])N[*:1]; AEEA = NCCOCCOCC(=O)O
Target: Inactive tyrosine-protein kinase transmembrane receptor ROR1 (Homo sapiens, UniProt Q01973)
Assay: Binding affinity to N-terminal His/GST-tagged recombinant human ROR1 (453 to 783 residues) extracted from baculovirus infected insect cells assessed as dissociation constant by SPR analysis

Chain of Inactive tyrosine-protein kinase transmembrane receptor ROR1 (Q01973 whole entry, the tested form may be a part): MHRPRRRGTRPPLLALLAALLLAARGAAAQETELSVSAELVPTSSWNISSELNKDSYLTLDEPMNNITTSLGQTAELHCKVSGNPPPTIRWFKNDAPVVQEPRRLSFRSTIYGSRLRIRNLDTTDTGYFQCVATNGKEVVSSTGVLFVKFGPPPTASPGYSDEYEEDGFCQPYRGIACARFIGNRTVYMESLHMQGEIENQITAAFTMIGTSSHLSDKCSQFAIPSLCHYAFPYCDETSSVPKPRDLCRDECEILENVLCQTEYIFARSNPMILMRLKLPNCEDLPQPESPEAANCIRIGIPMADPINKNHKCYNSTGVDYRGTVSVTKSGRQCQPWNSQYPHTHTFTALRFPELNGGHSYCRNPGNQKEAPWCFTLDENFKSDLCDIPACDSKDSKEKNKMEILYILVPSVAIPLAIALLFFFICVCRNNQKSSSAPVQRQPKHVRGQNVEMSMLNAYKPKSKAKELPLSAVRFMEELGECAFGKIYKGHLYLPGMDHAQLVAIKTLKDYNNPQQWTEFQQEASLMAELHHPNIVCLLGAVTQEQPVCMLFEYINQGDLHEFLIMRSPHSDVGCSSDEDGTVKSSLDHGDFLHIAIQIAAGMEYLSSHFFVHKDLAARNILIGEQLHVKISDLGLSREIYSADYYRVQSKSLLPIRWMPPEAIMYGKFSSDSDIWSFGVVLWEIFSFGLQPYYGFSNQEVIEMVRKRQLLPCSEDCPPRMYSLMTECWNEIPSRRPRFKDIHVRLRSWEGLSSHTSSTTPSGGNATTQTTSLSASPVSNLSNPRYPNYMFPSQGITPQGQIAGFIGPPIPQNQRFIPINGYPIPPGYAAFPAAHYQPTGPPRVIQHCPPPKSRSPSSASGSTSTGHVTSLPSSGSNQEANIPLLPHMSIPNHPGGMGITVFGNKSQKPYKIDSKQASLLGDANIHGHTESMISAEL

Kd: 1.2 nM
SMILES: CC[C@H](C)[C@H](NC(=O)[C@H](CC(=O)O)NC(=O)[C@H](CO)NC(=O)CNC(=O)[C@H](CSC1CC(=O)N(CCCCCC(=O)OCC2OC(n3ccc(N)nc3=O)C(F)(F)C2O)C1=O)NC(=O)CNC(=O)[C@H](CCCCN)NC(=O)COCCOCCNC(=O)COCCOCCNC(=O)CCC(NC(=O)CCCCCCCCCCCCCCCCC(=O)O)C(=O)O)C(=O)N[C@@H](CC(N)=O)C(=O)N[C@@H](CC(=O)O)C(=O)N[C@@H](CCCNC(=N)N)C(=O)N[C@@H](CCC(N)=O)C(=O)N[C@H](C(=O)N1CCC[C@H]1C(=O)NCC(=O)N[C@@H](Cc1ccc(O)cc1)C(=O)N[C@@H](CO)C(=O)N[C@H](C(=O)N[C@@H](Cc1ccc(O)cc1)C(=O)N[C@@H](Cc1c[nH]c2ccccc12)C(=O)NCC(=O)N[C@@H](CC(=O)O)C(=O)N[C@@H](Cc1ccccc1)C(N)=O)[C@@H](C)O)[C@@H](C)CC (stereo partly specified) ({C18 diacid-ξγGlu-AEEA-AEEA}-KGC(X6)GSDINDRQIPGYSTYWGDF-NH2)

From BindingDB's records for PubMed 38943600 (China Pharmaceutical University)
